In US20050209231A1, “Compositions and methods for inducing cardiomyogenesis” (priority 2004, published 2005):

Experiments:
[1] = Toxicity of the cardiogenols (Table 1); type: cell-based, murine; conditions: mouse, P19CL6 cells
P19CL6 cells = assay: MHC expression by immunostaining (anti-MHC antibody MF20), secondary assay for differentiation; type: cell-based, murine; conditions: for Optimal Activity: % cells positive for MHC after 7 days; for EC50: Mus musculus, P19CL6, inducing MHC expression
Method: MHC is one of the essential motor proteins responsible for cardiac muscle contractibility and was used as a secondary assay for differentiation. […] The P19CL6 cell line is a subclone of P19 EC cells with higher potential for cardiomyogenesis. See Habara-Ohkubo, Cell Struct. Funct., 21:101-110 (1996). MHC expression was determined in P19CL6 cells by immunostaining cells with anti-MHC antibody (MF20) (FIG. 2F).
The optimal activities of the cardiogenols in Table 1 are indicated by a series of "+" signs, as follows: ++: 10-25% cells are positive for MHC after 7 days; +++: 25-40% cells are positive for MHC after 7 days; ++++: 40-55% cells are positive for MHC after 7 days.

R1 cells = assay: Cellular toxicity and cell death in R1 cells; type: cell-based
R1 mouse ESCs = assay: Differentiation of undifferentiated R1 ESCs in monolayer into cardiac muscle (immunostaining of MHC, GATA-4, MEF2, Nkx2.5; beating); type: cell-based
Method: FIG. 2. Immunostaining of cardiac muscle markers in ESCs (A to E) and P19CL6 cells (F) treated with 0.25 μM cardiogenol C: (A) and (F) Myosin Heavy Chain (green); (B) GATA-4 (red); (C) MEF2 (red); (D) Nkx2.5 (red); and (E) Myosin Heavy Chain (green) and MEF2 (red). Cell nuclei were stained with DAPI (blue). Cells were fixed with 4% paraformaldehyde (Sigma) for 20 min. Cell staining was performed in PBS (Gibco) with 0.3% Triton X-100 and 6% horse serum. Primary antibodies were used at the following dilutions: myosin heavy chain (MHC) mouse monoclonal antibody MF20 (Developmental Studies Hybridoma Bank, 1:200), rabbit polyclonal anti-GATA-4 antibody (Santa Cruz Biotech, 1:300), rabbit anti-MEF2 antibody (Santa Cruz Biotech, 1:100) and goat anti-Nkx2.5 antibody (Santa Cruz Biotech, 1:100). Secondary antibodies were Cy2-conjugated anti-mouse (1:300), or Cy3-conjugated anti-rabbit or anti-goat antibodies (Jackson ImmunoResearch, 1:500). Cell nuclei were stained with DAPI (Roche). Images were taken with a Nikon Eclipes TE2000 microscope with 200-fold magnification. Double or triple-labeled images were assembled in Metamorph.
To confirm that these compounds are general cardiomyogenesis inducing agents, their effects on undifferentiated R1 mouse ESCs were analyzed. R1 mouse ESCs can be maintained in a pluripotent state with the addition of leukemia inhibitory factor (LIF) in the culture medium. The embryonic stem cell line R1 was cultured in gelatin-coated tissue culture dishes with Knockout DMEM with 15% ES serum replacement, 1 mM L-glutamine (from Gibco), 1% nonessential amino acids stock, 1% nucleosides stock, 0.1 mM […] (from Specialty Media) and 1000 units/mL of leukemia inhibitory factor (LIF, from Chemicon).
For differentiation, R1 cells were plated in a monolayer (10000 cells/well) in gelatin-coated 384-well or 96-well plates with 100 μL of DMEM with 10% FBS and 0.25 μM of compounds. LIF was not present during differentiation. After 7 days in culture (3 days with compounds and then, after changing the medium without additional compound added, another 4 days), the presence of beating cardiac muscle was visualized under a microscope. In addition to the expression of MHC (FIG. 2A), the cardiac specific gene, GATA-4, was detected by immunofluorescent staining using anti-GATA4 antibody (FIG. 2B).
Cardiogenol C has a […] aniline substituting at the pyrimidine C2 position and is very potent with an EC50 of 0.1 μM for inducing the differentiation of MHC positive cardiomyocytes from ESCs. […] See Boheler et al., Circ. Res., 91:189-201 (2002). […] This is in contrast to the current standard method of inducing cardiomyogenesis of ESCs by aggregation and formation of EBs, which results in only 5% of the cell population forming cardiomyocytes. See Boheler et al., (2002).
To further characterize the activity of Cardiogenol C, the expression of the cardiac muscle cell specific transcription factors MEF2 and Nkx2.5 was examined (FIGS. 2C and D). Members of the MEF2 family are essential for muscle development. See, e.g., Edmondson, et al., Development, 1251-1263 (1994); Lin et al., Science, 276:1404-1407 (1997). Nkx2.5 together with GATA-4 regulates the expression of multiple cardiac muscle specific genes (e.g., myosin light chain 2V, atria natriuretic factor, eHAND and homeodomain transcription factor HOP). See, e.g., Small et al., Cell, 110:725-735 (2002); Shin et al., Cell, 110:725-35 (2002). Moreover, the targeted interruption of Nkx2.5 gene is embryonic lethal and results in arrest of cardiac development. See, e.g., Lyons et al., Genes Dev., 9:1654-66 (1995). Approximately 90% of cardiogenol C treated cells stain positive for MEF2 and Nkx2.5, further confirming that ESCs are differentiated into cardiac muscle by cardiogenol C.

[2] = R1 cells, 0.25 μM compound for 3 days, then 4 days in medium without compound

EC50 (P19CL6 cells) [nM]	SMILES	EC50 [1] [nM]	Optimal Activity (P19CL6 cells)	concentration showing significant cellular toxicity (R1 cells)	treated cells stain positive for MEF2 (R1 mouse ESCs; ESCs)	treated cells stain positive for Nkx2.5 (R1 mouse ESCs; ESCs)	EC50 (R1 mouse ESCs; Mus musculus, Cardiomyocyte, read-out: EC50 for inducing the differentiation of MHC positive cardiomyocytes from ESCs) [nM]	beating areas (functional cardiac muscle) (R1 mouse ESCs; R1 cells treated with compound)	cells positive for GATA-4 (R1 mouse ESCs; [2])	cells stained positive for MHC (R1 mouse ESCs; [2])
500	OCCNc1ccnc(Nc2ccc(Oc3ccccc3)cc2)n1 [Cardiogenol B]	5000	+++ (25-40% cells are positive for MHC after 7 days)							
100	OCCNc1ccnc(Nc2ccc(/C=C/c3ccccc3)cc2)n1 [Cardiogenol D]	2500	++++ (40-55% cells are positive for MHC after 7 days)							
1000	OCCNc1ccnc(Nc2ccc(Nc3ccccc3)cc2)n1 [Cardiogenol A]	5000	++ (10-25% cells are positive for MHC after 7 days)							

SMILES	EC50 (P19CL6 cells) [nM]	EC50 [1] [nM]	Optimal Activity (P19CL6 cells)	concentration showing significant cellular toxicity (R1 cells)	treated cells stain positive for MEF2 (R1 mouse ESCs; ESCs)	treated cells stain positive for Nkx2.5 (R1 mouse ESCs; ESCs)	EC50 (R1 mouse ESCs; Mus musculus, Cardiomyocyte, read-out: EC50 for inducing the differentiation of MHC positive cardiomyocytes from ESCs) [nM]	beating areas (functional cardiac muscle) (R1 mouse ESCs; R1 cells treated with compound)	cells positive for GATA-4 (R1 mouse ESCs; [2])	cells stained positive for MHC (R1 mouse ESCs; [2])
COc1ccc(Nc2nccc(NCCO)n2)cc1 [Cardiogenol C]	100	25000	++++ (40-55% cells are positive for MHC after 7 days)	greater than 25 μM	Approximately 90%	Approximately 90%	100	many beating areas	more than 90%	more than 50%
